The subject of data set [1] is SF-268. Description: Growth inhibition of human SF268 cells. The class given is functional.
Data set [2] has as its system SF-539. Kind of data set: Growth inhibition of human SF539 cells. The class given is functional.
For data set [3], the system named is SNB-75. Kind of data set: Growth inhibition of human SNB75 cells. It counts as functional.
Data set [4] has as its system HCC 2998. Kind of data set: Growth inhibition of human HCC2998 cells. The class given is functional.
Data set [5] concerns LOX IMVI. Description: Growth inhibition of human LOXIMVI cells. It counts as functional.
Data set [6] has as its system OVCAR-3. Kind of data set: Growth inhibition of human OVCAR3 cells. It counts as functional.
In data set [7] the test system is OVCAR-4. Description: Growth inhibition of human OVCAR4 cells. The class given is functional.
Data set [8] deals with OVCAR-5. Description: Growth inhibition of human OVCAR5 cells. It counts as functional.
Data set [9] in a line: Growth inhibition of human MKN1 cells. The class given is functional. To be noted: MKN-1.
Data set [10] deals with MKN-45. Description: Growth inhibition of human MKN45 cells. The class given is functional.
The test system of data set [11] is MKN-74. Kind of data set: Growth inhibition of human MKN74 cells. The class given is functional.
For data set [12], the system named is Mus musculus. Kind of data set: Toxicity in nude mouse bearing human LOXIMVI cells assessed as change in body weight at 25 mg/kg, iv administered on day 1, 6 and 11. The class given is organism-based, LOX IMVI. Further details: dose 25 mg/kg, route intravenous. The settings on record: in vivo.
For data set [13], the system named is Saccharomyces cerevisiae. Kind of data set: Growth restoration activity in cdc2-1 rad9-deficient Saccharomyces cerevisiae assessed as growth zone incubated at 37 degC for 6 hrs and 28 degC for 2 days. It counts as functional, organism-based.
Data set [14] deals with Saccharomyces cerevisiae. Kind of data set: Growth restoration activity in cdc2-1 rad9-deficient Saccharomyces cerevisiae assessed as growth zone incubated at 37 degC for 6 hrs and 28 degC for 2 days relative to mycophenolic acid. It counts as functional.
Data set [15] relates to HL-60. Description: Induction of apoptosis in human HL60 cells assessed as DNA fragmentation at 1.25 to 40 uM by Hoechst staining-based microscopic analysis. The class given is functional, cell-based. The settings on record: TDE = time-dependent effect.
Data set [16] deals with HL-60. Description: Induction of apoptosis in human HL60 cells assessed as caspase 3/7 activation at 20 uM after 3 hrs by spectrophotometric analysis. The class given is functional, cell-based.
Data set [17] deals with HL-60. Kind of data set: Induction of apoptosis in human HL60 cells assessed as caspase 8 activation at 20 uM after 3 hrs by spectrophotometric analysis. The class given is functional, cell-based.
Data set [18] relates to HL-60. Kind of data set: Induction of apoptosis in human HL60 cells assessed as caspase 9 activation after 1 to 6 hrs by spectrophotometric analysis. It counts as functional, cell-based.
Data set [19] deals with MAP kinase p38 (Homo sapiens) (UniProt O15264+Q15759+Q16539+P53778). Kind of data set: Induction of p38 MAPK phosphorylation at T180/Y182 in human HL60 cells at 10 uM after 3 hrs by Western blot analysis. The class given is cell-based. The settings on record: HL-60. On the technique in general: A western blot detects proteins with antibodies after separation by electrophoresis.

For data set [20], the system named is HL-60. Kind of data set: Cytotoxicity against human HL60 cells after 48 hrs by MTT assay in presence of DFOM. The settings on record: HL-60, 48 h. The class given is functional, cell-based. For orientation: Tetrazolium assays rely on reduction of a dye to a coloured formazan, in cell work by metabolically active cells.
Data set [21] deals with HL-60. Description: Cytotoxicity against human HL60 cells assessed as cell viability at 2 uM by MTT assay. It counts as functional. To be noted: read-out: Activity.
Data set [22] relates to HL-60. Description: Induction of apoptosis in human HL60 cells assessed as DNA fragmentation after 24 hrs by Hoechst staining-based microscopic analysis in presence of 100 uM free radical scavenger vitamin E. It counts as functional, cell-based.

Active and inactive are the calls of the source. The calls are words filed in the database; no cut-off is given here.

A word on the GI50: it is the concentration giving 50% growth inhibition. The IC50 is the concentration needed to halve the response being measured. With `CC(C)=CCCC(C)C12C=CC(C)(CC1)OO2` (configuration not stated), the GI50 in data set [1] was 7080 nM; in data set [2], 2570 nM; in data set [3], 1320 nM; in data set [4], 4680 nM; in data set [5], 214 nM; in data set [6], 1740 nM. For the same molecule, the GI50 was 1820 nM in data set [7]; 12000 nM in data set [8]; 1740 nM in [9]; 6310 nM in data set [10]; 1170 nM in data set [11]. For the same molecule, the Activity result was “Non-toxic” in data set [12], “Dose-dependent effect” in data set [13], “tde” in data set [15] and “Dose-dependent effect” in data set [18]. In addition, the “fold change (FC)” value in data set [14] was 50. In addition, the outcome in [16], in [17] and in data set [19] was Active. Also, the 50% inhibitory concentration (IC50) in data set [20] is 35500 nM. For the same molecule, the viability at 2 µM in data set [21] is 77.8%. For the same molecule, in [22], the outcome was inactive.

For the origin of these results see ChEMBL document CHEMBL2062379, “Cleavage mechanism and anti-tumor activity of 3,6-epidioxy-1,10-bisaboladiene isolated from edible wild plants” (Bioorg Med Chem, 2012).
